Measured values reported in PubChem BioAssay (NCI).
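Growth conditions: 96-well plates. Treatment: test compound, 48 hours, 5 concentrations. Analysis: linear interpolation between bracketing concentrations; unreached endpoints set to highest concentration. TGI: concentration producing complete growth inhibition.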

Experiments:
Test in all cases: inhibition of tumour cell growth, NCI panel, 48 h
SF-539 CNS = system: SF-539 CNS
DU-145 prostate = system: DU-145 prostate
A549 NSCLC = system: A549 NSCLC
PC-3 prostate = system: PC-3 prostate
HCT-15 colon = system: HCT-15 colon
NCI-H460 lung = system: NCI-H460 lung
K-562 leukemia = system: K-562 leukemia
OVCAR-4 ovarian = system: OVCAR-4 ovarian
786-0 renal = system: 786-0 renal
MALME-3M melanoma = system: MALME-3M melanoma
SK-MEL-2 melanoma = system: SK-MEL-2 melanoma
A498 renal = system: A498 renal
RPMI-8226 leukemia = system: RPMI-8226 leukemia
HOP-62 NSCLC = system: HOP-62 NSCLC
SK-OV-3 ovarian = system: SK-OV-3 ovarian
HS 578T breast = system: HS 578T breast
SK-MEL-5 melanoma = system: SK-MEL-5 melanoma
RXF 393 renal = system: RXF 393 renal
SN12C renal = system: SN12C renal
CAKI-1 renal = system: CAKI-1 renal
MCF7 breast = system: MCF7 breast
U251 CNS = system: U251 CNS
SF-295 CNS = system: SF-295 CNS
HT29 colon = system: HT29 colon
HL-60(TB) leukemia = system: HL-60(TB) leukemia
TK-10 renal = system: TK-10 renal
UACC-257 melanoma = system: UACC-257 melanoma
OVCAR-3 ovarian = system: OVCAR-3 ovarian
M14 melanoma = system: M14 melanoma
SW-620 colon = system: SW-620 colon
HCC-2998 colon = system: HCC-2998 colon
NCI-H23 lung = system: NCI-H23 lung
EKVX NSCLC = system: EKVX NSCLC
NCI-H226 lung = system: NCI-H226 lung
MDA-MB-231 breast = system: MDA-MB-231 breast
BT-549 breast = system: BT-549 breast
IGROV1 ovarian = system: IGROV1 ovarian
SK-MEL-28 melanoma = system: SK-MEL-28 melanoma
COLO 205 colon = system: COLO 205 colon
UO-31 renal = system: UO-31 renal
HCT-116 colon = system: HCT-116 colon
OVCAR-5 ovarian = system: OVCAR-5 ovarian
SF-268 CNS = system: SF-268 CNS
SNB-75 CNS = system: SNB-75 CNS
KM12 colon = system: KM12 colon
MDA-N = system: MDA-N
ACHN renal = system: ACHN renal
LOX IMVI melanoma = system: LOX IMVI melanoma
HOP-92 NSCLC = system: HOP-92 NSCLC
OVCAR-8 ovarian = system: OVCAR-8 ovarian
NCI/ADR-RES ovarian = system: NCI/ADR-RES ovarian
T-47D breast = system: T-47D breast
MDA-MB-435 = system: MDA-MB-435
SNB-19 CNS = system: SNB-19 CNS
UACC-62 melanoma = system: UACC-62 melanoma

Question: Which results are given for `COc1ccc(-c2cc(-c3ccccc3)c3c(n2)-c2ccccc2NC(=O)C3)cc1`?
Answer: TGI (SF-539 CNS): > 100 µM; TGI (DU-145 prostate): > 100 µM; TGI (A549 NSCLC): > 100 µM; TGI (PC-3 prostate): > 100 µM; TGI (HCT-15 colon): > 100 µM; TGI (NCI-H460 lung): > 100 µM; TGI (K-562 leukemia): 8.64 µM; TGI (OVCAR-4 ovarian): > 100 µM; TGI (786-0 renal): > 100 µM; TGI (MALME-3M melanoma): 94.1 µM; TGI (SK-MEL-2 melanoma): > 100 µM; TGI (A498 renal): > 100 µM; TGI (RPMI-8226 leukemia): > 100 µM; TGI (HOP-62 NSCLC): > 100 µM; TGI (SK-OV-3 ovarian): > 100 µM; TGI (HS 578T breast): 30.5 µM; TGI (SK-MEL-5 melanoma): > 100 µM; TGI (RXF 393 renal): > 100 µM; TGI (SN12C renal): > 100 µM; TGI (CAKI-1 renal): > 100 µM; TGI (MCF7 breast): > 100 µM; TGI (U251 CNS): > 100 µM; TGI (SF-295 CNS): > 100 µM; TGI (HT29 colon): > 100 µM; TGI (HL-60(TB) leukemia): > 100 µM; TGI (TK-10 renal): > 100 µM; TGI (UACC-257 melanoma): > 100 µM; TGI (OVCAR-3 ovarian): > 100 µM; TGI (M14 melanoma): > 100 µM; TGI (SW-620 colon): > 100 µM; TGI (HCC-2998 colon): > 100 µM; TGI (NCI-H23 lung): > 100 µM; TGI (EKVX NSCLC): > 100 µM; TGI (NCI-H226 lung): > 100 µM; TGI (MDA-MB-231 breast): > 100 µM; TGI (BT-549 breast): > 100 µM; TGI (IGROV1 ovarian): 52.6 µM; TGI (SK-MEL-28 melanoma): > 100 µM; TGI (COLO 205 colon): > 100 µM; TGI (UO-31 renal): > 100 µM; TGI (HCT-116 colon): > 100 µM; TGI (OVCAR-5 ovarian): > 100 µM; TGI (SF-268 CNS): > 100 µM; TGI (SNB-75 CNS): 37.8 µM; TGI (KM12 colon): > 100 µM; TGI (MDA-N): > 100 µM; TGI (ACHN renal): > 100 µM; TGI (LOX IMVI melanoma): > 100 µM; TGI (HOP-92 NSCLC): > 100 µM; TGI (OVCAR-8 ovarian): 30.1 µM; TGI (NCI/ADR-RES ovarian): > 100 µM; TGI (T-47D breast): > 100 µM; TGI (MDA-MB-435): > 100 µM; TGI (SNB-19 CNS): > 100 µM; TGI (UACC-62 melanoma): > 100 µM
